SMILES strings stand for the structures.

The record followed here is article PMC12016938, “A small molecule PKCε inhibitor reduces hyperalgesia induced by paclitaxel or opioid withdrawal” (JCI Insight, 2025).

This experiment deals with T1, PKCγ (Homo sapiens, UniProt P05129).
T1 construct: purchased SignalChem Biotech
The experiment is described as follows: Lance-FRET kinase assay, PKCγ. The experiment is classed as biochemical. The conditions noted are these: Figure 1B. The method, then:
Kinase assays. CP612 was assayed against His-AVI–tagged human PKCε (1 nM) produced in Sf9 cells, and ROCK1 (Carna Biosciences; 5 nM) using the Lance-FRET kinase assay system (PerkinElmer Revvity). Other human recombinant PKCs (SignalChem Biotech) were assayed in triplicate at the following concentrations: PKCβII 1.6 nM, PKCγ 500 pM, PKCδ 5 nM, PKCθ 500 pM, and PKCζ 500 pM. PKCs were incubated in a 15 μL reaction volume with kinase buffer (20 mM Tris-HCL [pH 7.4], 10 mM MgCl2, 0.25 mM EGTA, 0.1 mg/mL BSA, and 0.15% Triton X-100), 50 nM ULight-labeled CREBtide […] (PerkinElmer, TRF0107, Revvity), and test compound. […] After incubation at 27°C for another 60 minutes, phosphorylation was detected using a FlexStation 3 Microplate Reader (Molecular Devices) in LANCE TR-FRET mode (excitation = 340 nm, emission = 665 nm) and expressed as relative fluorescence units (RFU). The percentage of inhibition was calculated as: (signal without test compound − signal with test compound)/(signal without test compound − signal without ATP) × 100. […]
Kinase assays used 11-point concentration-response curves and results were analyzed by nonlinear regression using Prism 9 (GraphPad Software) to determine IC50 values. […] Scores for pain threshold, conditioned place preference, and self-administration were analyzed by ANOVA using the following factors. […]

Regarding `N[C@H](CNC(=O)C1(c2ccc(Cl)cc2)CCCC1)c1ccc(C(=O)Nc2ccncc2)cc1` [CP612], the “Inhibition of conventional PKCγ” value was “weakly inhibited”.
